Key:
[1] = tested on: macrophage M1 associated gene expression; assay: Cisplatin treated transwell co-culture of macrophages and B16F10 cells, qRT-PCR; type: cell-based, mouse
Method: Peritoneal macrophage isolation and culture. Peritoneal macrophages were done as described previously(65) from 8-week-old C57BL/6J mice (randomized, both male and female). PBS (Gibco) was injected in the mural peritoneal cavity to release the macrophages. After recovering, cells were centrifuged at 1200 rpm for 5 minutes, resuspended in DMEM high glucose, 10% FBS, 1% penicillin-streptomycin (Gibco) and plated. 2 hours after the last step, cells were washed with PBS and maintained in DMEM/F12 supplemented with 10% FBS, 1% penicillin-streptomycin and 20 ng/ml of M-CSF (Prospec) for 2 days. Macrophages were treated for 24 hours with 50 ng/ml LPS (Sigma Millipore), 100 ng/ml IFNγ (BioLegend), 300 ng/ml PAM3CSK4 (InvivoGen), 107 cells/ml heat killed Listeria Monocytogenes (HKLM) (InvivoGen), 100 ng/ml Flagellin Salmonella typhimurium standard (InvivoGen), 10 ng/ml FSL1 (InvivoGen), 2.5 ug/ml ssRNA40 (InvivoGen), 2.5 ug/ml CL 075 (Tocris), 5 μM ODN1826, 50 μM Fludarabine (SelleckChem), 50 nM Momelotinib (SelleckChem), 5 μM BVT948 (Sigma Millipore), 200 μM PTP1b inhibitor III (Santa Cruz Biotechnology Inc.), 5 μM NSC87877 (Santa Cruz Biotechnology Inc.), 50 μM PTP1b inhibitor (Cayman), 1 mM PTP Inhibitor IV (Santa Cruz Biotechnology Inc.), 1 μM TSC401, 300 nM UNC2371 (SelleckChem), 300 nM BMS777607 (SelleckChem), 300 nM LDC1267 (SelleckChem) 1.5 μg/ml recombinant Pros1 (R&D systems), 200 ng/ml recombinant Gas6 (R&D systems) or 10-500 μM Cisplatin (Tocris). All components were added as described in the text. Cell culture. B16F10 (CRL-6475, ATCC), Lewis lung carcinoma (LLC) (CRL-1642, ATCC), KPC2713 (Yuliya Pylayeva-Gupta laboratory, UNC) and MDA-MB-231 (HTB-26, ATCC) were cultured in DMEM high glucose supplemented with 10% FBS, 1% penicillin-streptomycin (Gibco). GEMM6 (Dr. Alisha Holtzhausen, UNC), KPPC4662 (Dr. Yuliya Pylayeva-Gupta laboratory, UNC), KPPC4548 (Yuliya Pylayeva-Gupta laboratory, UNC) and E0771 (CRL-3461, ATCC) were maintained in RPMI 1640 supplemented with […], 1% penicillin/streptomycin (Gibco) while PyMT cells were cultured in Ham's F-12K with 10% FBS, 1% penicillin-streptomycin (Gibco). Transwell assays were performed in 0.4 μm polyester membrane insert culture plates (Corning). 500,000 cells of each line were plated per well in DMEM/F12 supplemented with 10% FBS, 1% penicillin-streptomycin and 20 ng/ml of M-CSF for culture with mouse macrophages. SC cells (CRL-9855, ATCC) were cultured in IMDM with 10% FBS and 1% penicillin-streptomycin (Gibco). In transwell experiments with the SC cell line, cancer cells were also resuspended in IMDM media.
qRT-PCR. RNA was isolated using the RNeasy Plus Mini Kit (Quiagen) and cDNA was prepared using the Reverse Transcription System (Promega) with one-hour reverse transcription process. qRT-PCR was done using the PowerUp™ SYBR™ Green Master Mix (Applied Biosystems) on a QuantStudio Pro Real-time PCR system (Applied Biosystems) with a 95° C. pretreatment of 10 min, 50 cycles of 95° C., 10 sec and 60° C., 1 min and melt curve at the end. Analysis was performed with the 2^−ΔΔCT method(136).

GEMM6 tumors = assay: GEMM6 melanoma tumor model; type: in vivo
Method: Tumor implantation, treatment and harvest. For animal studies, 1*10^5 B16F10 luciferase-tagged melanoma cells, 1*10^6 GEMM6 melanoma cells or 2*10^6 LCC cells were implanted subcutaneously into C57BL/6J mice (randomized, both males and females, 000664 The Jackson laboratory). When indicated, mice received intraperitoneal injections 7 days after implantation with 100 μl of 5 mg/kg cisplatin (Tocris), 100 μl of 10 mg/kg BVT948 (Tocris) or 100 μl of 30 mg/kg of vemurafenib. […]
Immunohistochemistry analysis. Immunohistochemistry assay was carried out in formalin-fixed, paraffin-embedded 4 μm sections using primary antibodies against F4:80 (AbD Serotec), CD11b (Abcam), CD4 (eBioscience) or CD8a (eBioscience) on a Discovery Ultra Automated IHC staining system (Ventana). Sections were then imaged using a ScanScope XT microscope (Aperio) and quantified using Aperio software.

[2] = BVT948 monotherapy, treatment from palpable tumors (50 mm^3), 8 mice per arm

Substance: BVT948
- macrophage pro-inflammatory gene expression, PTP1b inhibition in combination with Cisplatin ([1]; BVT948 with Cisplatin 50 μM to 500 μM, wildtype macrophages with B16F10 cells): able to restore macrophage pro-inflammatory gene expression, in a dose dependent manner
- M1 gene expression in MyD88 knockout macrophages ([1]; increasing Cisplatin, with or without BVT948): Neither increasing concentrations of Cisplatin, nor PTP1 b inhibition, were able to restore M1 gene expression
- decrease in GEMM6 tumor growth, combination (GEMM6 tumors; BVT948 in combination with Vemurafenib): roughly 50%
- tumor viability (H&E staining) (GEMM6 tumors; BVT948 monotherapy, GEMM6 tumors): not significantly changed
- mice completely regressing and immune to rechallenge 1 month later (GEMM6 tumors; [2]): 3/8
- mice showing reductions in tumor growth (GEMM6 tumors; [2]): 6/8
- mice that died (most likely drug toxicity or autoimmune response) (GEMM6 tumors; [2]): 2/8
- GEMM6 tumor growth, monotherapy vs vehicle (GEMM6 tumors; larger tumors (200 mm^3), BVT948 10 mg/kg or Vemurafenib 30 mg/kg intraperitoneal): did not significantly reduce

Reference: patent publication US20250041272A1, “COMPOSITIONS AND METHODS FOR TREATING CANCER VIA PTP1B INHIBITION” (priority 2021, published 2025)
